# Experimental data published in patent publication US20030236302A1, “Synthetic derivatives” (priority 2002, published 2003).
# Columns and labels:
# [1] = system: Human IL-12 p70 (heterodimer); experiment: IL-12 production in IFN-primed, SAC-stimulated THP-1 cells (ELISA); format: cell-based; conditions: THP-1 cells primed by IFNα (100 U/mL) 22 h, stimulated with 0.025% SAC, supernatants after 24 h
# Procedure: (§1) Human monocytic THP-1 cells were primed by IFNα (100 U/mL) for 22 h and then stimulated with 0.025% SAC in the presence of different concentrations of a test compound. The test compounds were prepared in DMSO and the final DMSO concentration was adjusted to 0.25% in all cell cultures, including the compound-free control. Supernatants from the cultures were removed after 24 h, and assayed for productions of IL-12 and […]. Cell viability was assessed using the bioreduction of MTS [3-(4,5-dimethylthiazol-2-yl)-5-(3-carboxymethoxyphenyl)-2-(4-sulfophenyl)-2H-tetrazolium] (Promega, Madison, Wis.), with cell survival estimated as the ratio of the absorbance in compound-treated groups versus compound-free control. Human IL-12 p70 (heterodimer) and TNFα were assayed using ELISA kit from Endogen (Cambridge, Mass.), according to the manufacturer's instructions.
# [2] = Cell viability by MTS bioreduction; format: cell-based, Human; conditions: human, THP-1 monocytic cells (IFNα-primed, SAC-stimulated), THP-1 cells, survival vs compound-free control, read-out: CC50 (μM) Cell Toxicity
# Procedure: as §1
# [3] = system: TNFα; experiment: TNFα production in IFN-primed, SAC-stimulated THP-1 cells (ELISA); format: cell-based, Human; conditions: THP-1 cells primed by IFNα (100 U/mL) 22 h, stimulated with 0.025% SAC, supernatants after 24 h
# Procedure: as §1
# [4] = system: Human monocytic THP-1 cells; experiment: Cell viability by MTS bioreduction; format: cell-based; conditions: survival vs compound-free control, read-out: CC50 (μM) Cell Toxicity
# Procedure: as §1
SMILES,IC50 ([1]; Homo sapiens) [µM],CC50 at 24 h [2] [µM],IC50 ([3]; Homo sapiens) [µM],IC50 [1] [µM],CC50 [4] [µM],IC50 [3] [µM]
"O=C1C=CC[C@H](CCc2cccc(F)c2)O1 [Compound 11, S-6-[2-(3-Fluoro-phenyl)-ethyl]-5,6-dihydro-pyran-2-one]",10,100,5,,,
"COC1=CC(=O)O[C@@H](CCc2ccccc2F)C1 [Compound 7, (S)-6-[2-(2-Fluoro-phenyl)-ethyl]-4-methoxy-5,6-dihydro-pyran-2-one]",38,> 100,62,,,
"COc1cc(CC[C@H]2CC=CC(=O)O2)cc(OC)c1OC [Compound 12, S-6-[2-(3,4,5-trimethoxylphenyl)-ethyl]-5,6-dihydro-pyran-2-one]",10,100,25,,,
COC1=CC(=O)OC(/C=C/c2ccc(F)c(F)c2F)C1 (stereo not shown) [Compound 15],90,> 100,60,,,
"O=C1CC(=O)O[C@@H](CCc2ccc(F)cc2)C1 [Compound 2, 6-[2-(4-Fluoro-phenyl)-ethyl]-dihydro-pyran-2,4-dione]",30,> 100,30,,,
"O=C1C=CC[C@H](CCc2ccccc2)O1 [Compound 10, (S)-6-Phenethyl-5,6-dihydro-pyran-2-one]",10,100,13,,,
"COC1=CC(=O)O[C@@H](CCc2cccnc2)C1 [Compound 21, 4-Methoxy-6-(2-pyridin-3-yl-ethyl)-5,6-dihydro-pyran-2-one]",100,> 100,80,,,
"COC1=CC(=O)OC(/C=C/c2ccc(F)c(F)c2)C1 (stereo not shown) [Compound 14, 6-[2-(3,4-difluoro-phenyl)-vinyl]-4-methoxy-5,6-dihydro-pyan-2-one]",70,> 100,70,,,
"COC1=CC(=O)OC(CCc2ccc[nH]2)C1 (stereo not shown) [Compound 6, 4-Methoxy-6-[2-(1H-pyrrol-2-yl)-ethyl]-5,6-dihydro-pyran-2-one]",70,> 100,100,,,
"COC1=CC(=O)O[C@@H](CCc2cccc(F)c2)C1 [Compound 8, (S)-6-[2-(3-Fluoro-phenyl)-ethyl]-4-methoxy-5,6-dihydro-pyran-2-one]",65,> 100,70,,,
"COC1=CC(=O)OC(CCc2ccc(F)c(F)c2)C1 (stereo not shown) [Compound 17, 6-[2-(3,4-difluoro-phenyl)-ethyl]-4-methoxy-5,6-dihydro-pyan-2-one]",,,,80,> 100,80
"O=C1CC(=O)O[C@@H](CCc2ccccc2)C1 [Compound 1, S-(+)-6-Phenethyl-dihydro-pyran-2,4-dione]",30,> 100,40,,,
"COC(=O)c1ccc(CCC2CC(OC)=CC(=O)O2)cc1 (stereo not shown) [Compound 16, 4-[2-(4-methoxy-6-oxo-3,6-dihydro-2H-pyran-2-yl)-ethyl]-benzoic acid methyl ester]",80,> 100,80,,,
"CCOC1=CC(=O)O[C@@H](CCc2ccccc2)C1 [Compound 20, (S)-4-Ethoxy-6-phenethyl-5,6-dihydro-pyran-2-one]",80,> 100,100,,,
"COC1=CC(=O)O[C@@H](CCc2ccc(F)cc2)C1 [Compound 9, (S)-6-[2-(4-Fluoro-phenyl)-ethyl]-4-methoxy-5,6-dihydro-pyran-2-one]",86,> 100,100,,,
"COC1=CC(=O)OC(C=Cc2ccc(C#N)cc2)C1 (stereo not shown) [Compound 13, 6-[2-(4-cyano-phenyl)-vinyl]-4-methoxy-5,6-dihydro-pyan-2-one]",,,,80,> 100,
"O=C1C=C(O)CC(/C=C/c2cccnc2)O1 (stereo not shown) [Compound 5, 6-(2-pyridin-3-yl-vinyl)-dihydro-pyran-2,4-one]",80,> 100,100,,,
"O=C1CC(=O)O[C@@H](CCc2cccc(F)c2)C1 [Compound 4, (S)-6-[2-(3-Fluoro-phenyl)-ethyl]-dihydro-pyran-2,4-dione]",40,> 100,20,,,
"COC1=CC(=O)OC(CCc2ccc(F)cc2)C1 (stereo not shown) [Compound 18, 6-[2-(4-fluoro-phenyl)-ethyl]-4-methoxy-5,6-dihydro-pyan-2-one]",,,,80,> 100,70
"CC(C)OC1=CC(=O)O[C@@H](CCc2ccccc2)C1 [Compound 19, S-(+)-4-isopropoxy-6-phenethyl-5,6-dihydro-pyran-2-one]",70,> 100,70,,,
"O=C1CC(=O)O[C@@H](CCc2ccccc2F)C1 [Compound 3, (S)-6-[2-(2-fluoro-phenyl)-ethyl]-dihydro-pyran-2,4-dione]",70,,40,,,
